Broadly, the melting point is the temperature, or range, at which the solid turns liquid.

SMILES strings stand for the structures.

Regarding `CC(C)(C)OC(=O)N[C@H](C(=O)N1CCC[C@H]1C(=O)NC1CCc2nc(N)ncc2C1)C(c1ccccc1)c1ccccc1` (stereo partly specified), the melting point fell in the range of 127 to 130 °C.
In turn, `CCCCCSc1ccc(-c2ncc(CCCCC)cn2)cc1` registered a melting point of 52.8 °C.
The molecule `O=[N+]([O-])c1cccnc1Cc1ccccc1` had a melting point of 72 °C.
With `Cc1ccc(N2CCN(c3c(C)c(C)c4c(c3C)CC(C)(CO)O4)CC2)cc1` (stereo unspecified) the figure was 152 to 155 °C; with `Cc1[nH]c2ccc(F)cc2c1C(=O)Nc1ccc(N2CCC(O)CC2)c(C#N)c1`, 169 to 171 °C; with `CC(C)(C)OC(=O)N1CCC(CS(=O)Cc2cc(C(F)(F)F)cc(C(F)(F)F)c2)(c2ccccc2)CC1` (stereo unspecified), 123 to 134 °C.
`C=CCNc1nc(NCC(C)(C)C)nc2ccc([N+](=O)[O-])cc12` returned a melting point of 167 to 168 °C.
For `COC1=CC(N)C(C)(Cl)C=C1` (stereo unspecified), the melting point was 83 to 85 °C.
`CCOC(=O)CCc1cnc2c(NC(=O)c3c(Cl)cccc3Cl)cccc2c1` showed a melting point of 110 to 111 °C.
The molecule `Nc1nc2cc(F)ccc2s1` had a melting point of 167 °C.
The same measure for `CSc1nc(-c2cc(C(C)(C)C)c(O)c(C(C)(C)C)c2)c[nH]1`: 249 to 251 °C.
Molecule `CC(C)C[C@H](NC(=O)C=Cc1ccccc1)C(=O)N[C@@H](Cc1ccccc1)C(=O)CSCc1ccco1` yielded a melting point of 141 to 143 °C.
Take `CC1(C)CC(C(O)CNc2nc(Cl)nc(NCC(O)C3CC(C)(C)NC(C)(C)C3)n2)CC(C)(C)N1` (stereo unspecified): the melting point is 206 to 207 °C.
Take `Cc1nc2sc(S(=O)(=O)Cl)cc2c(=O)n1-c1ccccc1Cl`: the melting point fell in the range of 172 to 174 °C.
In turn, `CCS(=O)(=O)c1nsc(NC(=O)NC)c1C#N` showed a melting point of 258 °C.
As to `COC(=O)C=Cc1cccc2[nH]ccc12`, the melting point was in the range of 113 to 115 °C.
`CC(C)(O)c1cccc(Oc2cccc(-c3c(Cc4ccccc4)cnc4c(C(F)(F)F)cccc34)c2)c1`: the melting point is < 80 °C.
The same measure for `O=C1c2cccc3c(F)ccc(c23)C(=O)N1O`: 257 to 261 °C; for `O=c1[nH]c(=O)n2c(c1-c1ccccc1)SCCC2`: > 300 °C; for `CN(C)c1ccc(C(=O)Nc2nc(-c3ccco3)c(C(=O)C3CCOCC3)s2)cc1`: 238 to 240 °C.
The molecule `COc1ccc2c(c1)c(C)cc(=O)n2Cc1ccccc1Cl` showed a melting point of 177 to 179 °C.
In turn, `CCOC(=O)C1=C(CS(=O)CCN)NC(C)=C(C(=O)OC)C1c1cccc([N+](=O)[O-])c1` (stereo unspecified) had a melting point of 170 to 172 °C.
With `CCOC(=O)c1c(Nc2ccccc2OC)n[nH]c1C` the figure was 162 to 172 °C.
In the case of `CN(C)C=C1CN=C(c2ccccc2)c2ccccc2C1=O`, the melting point lay in the range of 131 to 133 °C.
On to `N#Cc1cc(N2CCCCC2)ccc1[N+](=O)[O-]`, for which the melting point was 126 to 127 °C.
For the molecule `CCON=C(CC)C1=C(O)CC(c2ccc(Oc3ncc(C(F)(F)F)cc3F)cc2)CC1=O` (stereo unspecified), the melting point fell in the range of 82 to 82.5 °C.
In the case of `CCCNC1=Nc2cccnc2N(CC)c2ncccc21`, the melting point lay in the range of 114 to 116 °C.
Turning to `NC(=O)c1ccc2[nH]c(=O)oc2c1`, the melting point came to 296 °C.
As to `COC(=O)c1ccc(Cl)cc1NC(=O)Cc1cccc(C#Cc2ccccc2)c1`, the melting point was in the range of 100 to 101 °C.
In turn, `CC(C)CCCC(C)CCOc1cc(CO)c(-c2ccccc2)cc1CO` (stereo unspecified) yielded a melting point of 112 to 115 °C.
The molecule `Nn1c(=O)c2cc(F)c(S(=O)(O)=S)nc2n(C2CC2)c1=O` returned a melting point of 167 to 169 °C.
Regarding `CC(C)[C@H](NC(=O)[C@H](Cc1ccccc1)NC(=O)OCc1ccccc1)[C@@H](O)c1c(-c2ccccc2)c1=O`, the melting point was in the range of 175 to 177 °C.
`Cc1oc(-c2ccccc2)nc1COc1ccc(CON=C2CC(C(=O)O)c3ccccc32)cc1` (stereo unspecified) showed a melting point of 148 to 149 °C.
For the molecule `COc1ccccc1NC(=O)Nc1nc(Nc2ccc(CC(=O)O)cc2)nc(Nc2ccccc2-c2ccccc2)n1`, the melting point is > 300 °C.
In turn, `COC1=C(C(=O)c2ccc(OC)cc2)C(c2ccc(C(C)(C)C)cc2)N(c2nnc(C)s2)C1=O` (stereo unspecified) returned a melting point of 235 to 237 °C.
`COC(=O)c1c(O)cccc1OCCCCNC(=O)CCc1ccc(N2CC(=O)NS2(=O)=O)c(O)c1` displayed a melting point of 85 to 90 °C.
`CCSc1nc2c(cc1F)c(=O)c(C(=O)O)cn2CC`: the melting point was in the range of 219 to 221 °C.
With `Cc1cccc(-n2nc(C)c(C)c2-c2cc3cnccc3s2)n1` the figure was 108 to 109 °C; with `CC(C)(C)C1CCCC=C1c1ccc(C(=O)O)cc1` (stereo unspecified), 197 °C; with `NS(=O)(=O)N1CCC(CCNC(=O)c2cc(Cl)ccn2)CC1`, 186 to 187 °C.
On to `FC(F)(Cc1c[nH]c2ccc(-n3cnnc3)cc12)CN1CCC(OCc2ccccc2)CC1`, for which the melting point was determined as 170 °C.
`CNc1ncnc2c(NC3OC(CO)C(O)C3O)ncnc12` (stereo unspecified) had a melting point of 230 °C.
Consider `CC1=C(C)C(=O)C(CCCCC#CCCCC#CCOC(N)=O)=C(C)C1=O`, for which the melting point fell in the range of 56 to 57 °C.
The molecule `OC1CSC(Oc2ccc(-c3cccnc3)cc2F)C(O)C1O` (stereo unspecified) came in with a melting point of 207 °C.
On to `Cc1ccc(-n2ccc(=O)c(-c3ccnn3-c3ccccc3)n2)cc1`, for which the melting point was in the range of 182 to 183 °C.
In the case of `CN(C)CCn1c2ccccc2c(=NN=C2NCCS2)c2ccccc21`, the melting point was in the range of 192 to 194 °C.
Molecule `CCCC(=O)N(C)c1cccc(-c2ccc3nnc(C)n3n2)c1` returned a melting point of 140 to 143 °C.
`C[C@H](c1ccc(F)cc1)N1CCN(c2cc(Oc3cccc4ncc(N)nc34)ncn2)CC1` came in with a melting point of 118 °C.
Molecule `NC(=O)C1CCCN(C(c2ccccc2)c2ccccc2)C1` (stereo unspecified) registered a melting point of 86 to 87 °C.
On to `CC1=C(c2ccccc2)CCC(=O)N1`, for which the melting point lay in the range of 310 to 330 °C.
Molecule `CSc1nccc(-c2cn(Cc3ccccc3C#N)c(=O)n2-c2ccc(F)cc2)n1` returned a melting point of 141 to 142 °C.
Consider `COc1nc(C)nc(NC(=O)NS(=O)(=O)c2cc([N+](=O)[O-])cs2)n1`, for which the melting point amounted to 188 °C.
`CC(NO)c1ccc2c(c1)Sc1ccccc1O2` (stereo unspecified): the melting point was in the range of 64 to 67 °C.
Consider `CCc1c(C(=O)O)[nH]c2c1C(=O)CC(C)(C)C2`, for which the melting point was > 198 °C.
In the case of `O=C(c1cccc(C(F)(F)F)c1)c1cc2cccc(Br)c2s1`, the melting point fell in the range of 135 to 136 °C.
For the molecule `COC(=O)c1ccc(C(=O)CCC(=O)c2ccc3c(c2)C(C)(C)CCC3(C)C)cc1`, the melting point lay within 126 to 129 °C.
`Cc1[nH]c(Br)c(C)c1-c1ccnc(Nc2ccc(F)cc2)n1` showed a melting point of 181 to 183 °C.
The molecule `C=C(C(=O)O)c1ccc2c(=O)c3ccccc3ccc2c1` registered a melting point of 232 to 235 °C.
Regarding `NS(=O)(=O)c1ccc(N2CN(c3cccc(Cl)c3)CC2=O)c(Cl)c1`, the melting point lay in the range of 208 to 216 °C.
The molecule `Nc1ccc2c(c1)S(=O)(=O)NCCO2` returned a melting point of 179 °C.
With `CC(C)(C)c1cc(-c2nn(CC#N)c3ncccc23)cc(C(C)(C)C)c1O` the figure was 141 to 143 °C; with `CCOC(=O)c1cn(-c2ncnn2C)c2cc(F)c(F)cc2c1=O`, 230 to 231 °C; with `CC1(C)CCC(C)(C)c2cc(OCc3ccc(CN)cc3)ccc21`, 77 to 79 °C.
The molecule `Cc1nc2cc(F)c(C)cc2c(=O)[nH]1` displayed a melting point of 173 to 174 °C.
Take `CC(C)(C)OC(=O)N1CC=C(c2ccc(N)c([N+](=O)[O-])c2)CC1`: the melting point is 111 to 112 °C.
The same measure for `Cc1oc(-c2ccc3ccccc3c2)nc1COc1ccc(/C=C/C=O)cc1`: 179 to 180 °C.
In the case of `CCN(COC)c1cc(-c2ccnc(Nc3cccc(Cl)c3)n2)ccn1`, the melting point is 114 to 115 °C.
`Cc1onc(OC2CN3CCC2CC3)c1Cl` (stereo unspecified) returned a melting point of 37 to 38 °C.
With `Cn1cc(-c2cc3cccnc3[nH]2)c2cc(-c3nn[nH]n3)ccc21` the figure was 303 °C.
The molecule `CC(C)c1cc([N+](=O)[O-])cc(C(C)C)c1OS(N)(=O)=O` gave a melting point of 163 to 167 °C.
The same measure for `O=C1C(Br)CCN1c1cccc(C(F)(F)F)c1` (stereo unspecified): 79 to 83 °C.
`COC(=O)c1cccc(C=CC(=O)O)c1` had a melting point of 189 to 190 °C.
As to `CCCCNc1ccc2nn(CCC)c(=O)n2n1`, the melting point was 183 to 185 °C.
The same measure for `O=C(NC(=O)c1c(F)cccc1F)Nc1cc(Cl)c(Oc2ccc(Cl)c3ccccc23)c(Cl)c1`: 237 to 239 °C; for `CC(OC(=O)Nc1ccccc1)c1ccccc1[N+](=O)[O-]` (stereo unspecified): 74 to 75 °C.
As for `c1ccc(Sc2c[nH]c3ncccc23)cc1`, the melting point is 188 to 189 °C.
Molecule `N#CC(=NNc1c(Cl)cc(C(F)(F)F)cc1Cl)c1ccc(Cl)cc1` displayed a melting point of 164 to 165 °C.
`Clc1cc(N2Cc3ccccc3C2)nc2ccccc12` had a melting point of 172 to 173 °C.
With `CN1CCC(=C2c3cc(Cl)ccc3CC(=O)c3sccc32)CC1` the figure was 168 to 169 °C.
Molecule `Nc1ccn([C@H]2C=C[C@@H](O)C2)c(=O)n1` (racemic) gave a melting point of 241 to 242 °C.
`COc1ccc([N+](=O)[O-])c(Nc2ccc3[nH]ncc3c2)n1` returned a melting point of 206 to 208 °C.
Molecule `O=C(O)C1c2cc(F)ccc2-c2ccc(F)cc21` displayed a melting point of 161 to 163 °C.
Regarding `COc1ccc(NC(=O)c2c(Cl)cccc2Cl)c2nccc(Cl)c12`, the melting point was 238 to 242 °C.
For the molecule `CC(=O)n1c(=O)n(-c2ccc3c(c2)OCO3)c2ncccc21`, the melting point fell in the range of 211 to 212 °C.
Regarding `CC1Cc2cc3c(cc2C1=O)C(C)(C)CCC3(C)C` (stereo unspecified), the melting point was in the range of 74 to 75.5 °C.
Regarding `CC(C)NC(=O)NCCn1c(CO)nc2c(N)nc3ccccc3c21`, the melting point was > 240 °C.
Molecule `CCCCCCOc1ccc(-c2cc(CBr)ccc2CBr)cc1` had a melting point of 38.5 to 40.5 °C.
`Cc1cc(C)n(-c2ccc(C#N)nn2)n1` came in with a melting point of 187 to 189 °C.
On to `COc1ccc(Br)c2c1C1C(=O)N(C)C(=O)C1CC2` (stereo unspecified), for which the melting point fell in the range of 201 to 202 °C.
Regarding `Clc1cccc(NC2=Nc3ccc(Cl)cc3CS2)c1`, the melting point fell in the range of 174 to 175 °C.
With `O=c1[nH]c2ncncc2s1` the figure was > 108 °C.

Source of the values: a melting point compilation (Tetko et al.; mined from patent text by program, amines drawn as free bases though some values may be those of a salt).
